Test results: the NIST ThermoML archive (doi:10.1016/j.jct.2016.08.031)
± gives the expanded uncertainty stated by the source.

Settings: Liquid, Closed cell (Static) method

SMILES	vapor or sublimation pressure (303.15 K) [kPa]	vapor or sublimation pressure (313.15 K) [kPa]	vapor or sublimation pressure (323.15 K) [kPa]	vapor or sublimation pressure (333.15 K) [kPa]	vapor or sublimation pressure (343.15 K) [kPa]	vapor or sublimation pressure (353.15 K) [kPa]
F/C=C\C(F)(F)F [(Z)-1,3,3,3-tetrafluoro-1-propene]	210.6 ± 1.1	290.7 ± 1.1	391.8 ± 1.2	517.4 ± 1.3	671.3 ± 1.4	859.2 ± 1.6
CC(C)C [2-methylpropane]	404.5 ± 1.2	530.9 ± 1.3	684.6 ± 1.4	869 ± 1.7	1087.4 ± 1.9	1343.4 ± 2.3
